Results as given in patent US20240409886A1, “CULTURE MEDIUM COMPRISING DIPEPTIDES” (Evonik Operations GmbH, priority 2017, published 2024).
Residues, ends and D or L forms follow the SMILES beside them.

System: antibody-producing Chinese Hamster Ovary (CHO) cell (subclone DG44)
Experiment: viable cell density in CHO cell culture with increasing Gln-Asn dipeptide (OFAT)
Type: cell-based
Description: The effect of the Gln-Asn dipeptide on an antibody-producing Chinese Hamster Ovary (CHO) cell (subclone DG44; Life Technologies Corporation, Carlsbad, USA) was investigated using one-factor-at-a-time (OFAT) analysis.
The analysis was based on a comparison of the viable cell density and cell viability in a series of cell cultures, which were conducted at substantially identical culturing conditions, however, with increasing amounts of the Gln-Asn dipeptide in the medium. In order to keep the total amounts of Asn and Gln units (molar basis) in the various culture media constant, the molar concentration of free glutamine and free asparagine was reduced in accordance with the molar amount of the dipeptide added. A series of culture media having increasing amounts of the Gln-Asn dipeptide was prepared by mixing varying amounts of a Base Medium (comprising free Asn and Gln) and a Test Medium (comprising Asn-Gln dipeptide). A commercially available defined cell culture medium (TC-42, TeutoCell AG, Bielefeld, Germany) served as the Base Medium. (Any other suitable cell culture medium could be used.) A Test Medium (TC-42-EVO) was prepared so as to have identical nutrient concentrations compared to the Base Medium, however, instead of free Asn the Test Medium contained an equimolar amount (5.4 mM) of Gin-Asn dipeptide. Furthermore, the free Gln concentration in the Test Medium was set to a value such that the total concentration of Gln units in the Test Medium (i.e., free Gln and dipeptide-Gln) matched the concentration of free Gln in the Base Medium. All other nutrient concentrations in the Test Medium were the same as in the Base Medium. The Base Medium contained 1461.5 mg/l free Gln and 612 mg/l free Asn.
Six cell cultivations were then conducted with media containing varying amounts of the Test Medium and the Base Medium in the following proportions:
All media were set to pH 8.3. Salinity of the culture media was set to 285 mOsmol/kg with NaCl. All cultivations were conducted in on a rotary shaker under identical culture conditions (temperature, humidity, rpm, CO2, etc.), using standard cell culture methods. Three passages of a cell culture are conducted and viable cell density (VCD; 10^6 viable cells/ml) and cell viability (%) was followed in duplicate determinations, using […] determination.
A correlation of the maximum viable cell density (third passage) with the concentration of the dipeptide is observed. The greatest maximum viable cell density is obtained in cultivation #1, i.e., in the cultivation in which all Asn is provided in the form of the Asn-containing dipeptide. The lowest maximum viable cell density is obtained in cultivation #6, i.e., in the cultivation in which all of the Asn in provided as free amino acid. Furthermore, it can be seen that the increased viable cell density is maintained over an extended period of time (day 13 through day 18).

Compound: NC(=O)CC[C@H](N)C(=O)N[C@@H](CC(N)=O)C(=O)O [Gln-Asn, L-glutaminyl-L-asparagine] (H-Gln-Asn-OH)
- viable cell density (0.3 mM dipeptide (#5), time 0): 0.285 10^6 cells/ml
- viable cell density (0.3 mM dipeptide (#5), time 0.89): 0.485 10^6 cells/ml
- viable cell density (0.3 mM dipeptide (#5), time 3.08): 1.985 10^6 cells/ml
- viable cell density (0.3 mM dipeptide (#5), time 3.71): 3.325 10^6 cells/ml
- viable cell density (0.3 mM dipeptide (#5), time 4.08): 0.265 10^6 cells/ml
- viable cell density (0.3 mM dipeptide (#5), time 4.70): 1.12 10^6 cells/ml
- viable cell density (0.3 mM dipeptide (#5), time 5.69): 1.555 10^6 cells/ml
- viable cell density (0.3 mM dipeptide (#5), time 6.88): 3.8 10^6 cells/ml
- viable cell density (0.3 mM dipeptide (#5), time 7.04): 0.31 10^6 cells/ml
- viable cell density (0.3 mM dipeptide (#5), time 7.80): 1.17 10^6 cells/ml
- viable cell density (0.3 mM dipeptide (#5), time 8.78): 2.01 10^6 cells/ml
- viable cell density (0.3 mM dipeptide (#5), time 9.82): 3.9 10^6 cells/ml
- viable cell density (0.3 mM dipeptide (#5), time 10.99): 6.065 10^6 cells/ml
- viable cell density (0.3 mM dipeptide (#5), time 12.02): 8.21 10^6 cells/ml
- viable cell density (0.3 mM dipeptide (#5), time 12.75): 7.135 10^6 cells/ml
- viable cell density (0.3 mM dipeptide (#5), time 13.89): 5.13 10^6 cells/ml
- viable cell density (0.3 mM dipeptide (#5), time 14.74): 5.54 10^6 cells/ml
- viable cell density (0.3 mM dipeptide (#5), time 15.79): 4.075 10^6 cells/ml
- viable cell density (0.3 mM dipeptide (#5), time 16.89): 2.775 10^6 cells/ml
- viable cell density (0.3 mM dipeptide (#5), time 18.06): 1.825 10^6 cells/ml
- viable cell density (0.8 mM dipeptide (#4), time 0): 0.27 10^6 cells/ml
- viable cell density (0.8 mM dipeptide (#4), time 0.89): 0.565 10^6 cells/ml
- viable cell density (0.8 mM dipeptide (#4), time 3.08): 2.285 10^6 cells/ml
- viable cell density (0.8 mM dipeptide (#4), time 3.71): 3.4 10^6 cells/ml
- viable cell density (0.8 mM dipeptide (#4), time 4.08): 0.365 10^6 cells/ml
- viable cell density (0.8 mM dipeptide (#4), time 4.70): 0.665 10^6 cells/ml
- viable cell density (0.8 mM dipeptide (#4), time 5.69): 1.545 10^6 cells/ml
- viable cell density (0.8 mM dipeptide (#4), time 6.88): 3.36 10^6 cells/ml
- viable cell density (0.8 mM dipeptide (#4), time 7.04): 0.32 10^6 cells/ml
- viable cell density (0.8 mM dipeptide (#4), time 7.80): 1.12 10^6 cells/ml
- viable cell density (0.8 mM dipeptide (#4), time 8.78): 1.86 10^6 cells/ml
- viable cell density (0.8 mM dipeptide (#4), time 9.82): 3.6 10^6 cells/ml
- viable cell density (0.8 mM dipeptide (#4), time 10.99): 6.31 10^6 cells/ml
- viable cell density (0.8 mM dipeptide (#4), time 12.02): 7.805 10^6 cells/ml
- viable cell density (0.8 mM dipeptide (#4), time 12.75): 7.545 10^6 cells/ml
- viable cell density (0.8 mM dipeptide (#4), time 13.89): 5.86 10^6 cells/ml
- viable cell density (0.8 mM dipeptide (#4), time 14.74): 5.26 10^6 cells/ml
- viable cell density (0.8 mM dipeptide (#4), time 15.79): 4.065 10^6 cells/ml
- viable cell density (0.8 mM dipeptide (#4), time 16.89): 3.175 10^6 cells/ml
- viable cell density (0.8 mM dipeptide (#4), time 18.06): 2.3 10^6 cells/ml
- viable cell density (1.4 mM dipeptide (#3), time 0): 0.265 10^6 cells/ml
- viable cell density (1.4 mM dipeptide (#3), time 0.89): 0.495 10^6 cells/ml
- viable cell density (1.4 mM dipeptide (#3), time 3.08): 1.8 10^6 cells/ml
- viable cell density (1.4 mM dipeptide (#3), time 3.71): 2.415 10^6 cells/ml
- viable cell density (1.4 mM dipeptide (#3), time 4.08): 0.315 10^6 cells/ml
- viable cell density (1.4 mM dipeptide (#3), time 4.70): 0.65 10^6 cells/ml
- viable cell density (1.4 mM dipeptide (#3), time 5.69): 1.47 10^6 cells/ml
- viable cell density (1.4 mM dipeptide (#3), time 6.88): 3.365 10^6 cells/ml
- viable cell density (1.4 mM dipeptide (#3), time 7.04): 0.33 10^6 cells/ml
- viable cell density (1.4 mM dipeptide (#3), time 7.80): 0.77 10^6 cells/ml
- viable cell density (1.4 mM dipeptide (#3), time 8.78): 1.615 10^6 cells/ml
- viable cell density (1.4 mM dipeptide (#3), time 9.82): 2.97 10^6 cells/ml
- viable cell density (1.4 mM dipeptide (#3), time 10.99): 5.25 10^6 cells/ml
- viable cell density (1.4 mM dipeptide (#3), time 12.02): 8.29 10^6 cells/ml
- viable cell density (1.4 mM dipeptide (#3), time 12.75): 9.23 10^6 cells/ml
- viable cell density (1.4 mM dipeptide (#3), time 13.89): 8.975 10^6 cells/ml
- viable cell density (1.4 mM dipeptide (#3), time 14.74): 9.58 10^6 cells/ml
- viable cell density (1.4 mM dipeptide (#3), time 15.79): 9.535 10^6 cells/ml
- viable cell density (1.4 mM dipeptide (#3), time 16.89): 7.395 10^6 cells/ml
- viable cell density (1.4 mM dipeptide (#3), time 18.06): 5.985 10^6 cells/ml
- viable cell density (4.3 mM dipeptide (#2), time 0): 0.27 10^6 cells/ml
- viable cell density (4.3 mM dipeptide (#2), time 0.89): 0.51 10^6 cells/ml
- viable cell density (4.3 mM dipeptide (#2), time 3.08): 1.615 10^6 cells/ml
- viable cell density (4.3 mM dipeptide (#2), time 3.71): 2.13 10^6 cells/ml
- viable cell density (4.3 mM dipeptide (#2), time 4.08): 0.3 10^6 cells/ml
- viable cell density (4.3 mM dipeptide (#2), time 4.70): 0.54 10^6 cells/ml
- viable cell density (4.3 mM dipeptide (#2), time 5.69): 1.545 10^6 cells/ml
- viable cell density (4.3 mM dipeptide (#2), time 6.88): 3.555 10^6 cells/ml
- viable cell density (4.3 mM dipeptide (#2), time 7.04): 0.305 10^6 cells/ml
- viable cell density (4.3 mM dipeptide (#2), time 7.80): 1.045 10^6 cells/ml
- viable cell density (4.3 mM dipeptide (#2), time 8.78): 1.545 10^6 cells/ml
- viable cell density (4.3 mM dipeptide (#2), time 9.82): 2.8 10^6 cells/ml
- viable cell density (4.3 mM dipeptide (#2), time 10.99): 5.115 10^6 cells/ml
- viable cell density (4.3 mM dipeptide (#2), time 12.02): 7.215 10^6 cells/ml
- viable cell density (4.3 mM dipeptide (#2), time 12.75): 9.42 10^6 cells/ml
- viable cell density (4.3 mM dipeptide (#2), time 13.89): 9.645 10^6 cells/ml
- viable cell density (4.3 mM dipeptide (#2), time 14.74): 9.985 10^6 cells/ml
- viable cell density (4.3 mM dipeptide (#2), time 15.79): 11.08 10^6 cells/ml
- viable cell density (4.3 mM dipeptide (#2), time 16.89): 9.195 10^6 cells/ml
- viable cell density (4.3 mM dipeptide (#2), time 18.06): 8.905 10^6 cells/ml
- viable cell density (5.4 mM dipeptide (#1), time 0): 0.28 10^6 cells/ml
- viable cell density (5.4 mM dipeptide (#1), time 0.89): 0.59 10^6 cells/ml
- viable cell density (5.4 mM dipeptide (#1), time 3.08): 1.38 10^6 cells/ml
- viable cell density (5.4 mM dipeptide (#1), time 3.71): 1.64 10^6 cells/ml
- viable cell density (5.4 mM dipeptide (#1), time 4.08): 0.365 10^6 cells/ml
- viable cell density (5.4 mM dipeptide (#1), time 4.70): 0.56 10^6 cells/ml
- viable cell density (5.4 mM dipeptide (#1), time 5.69): 1.33 10^6 cells/ml
- viable cell density (5.4 mM dipeptide (#1), time 6.88): 3.16 10^6 cells/ml
- viable cell density (5.4 mM dipeptide (#1), time 7.04): 0.335 10^6 cells/ml
- viable cell density (5.4 mM dipeptide (#1), time 7.80): 0.665 10^6 cells/ml
- viable cell density (5.4 mM dipeptide (#1), time 8.78): 1.26 10^6 cells/ml
- viable cell density (5.4 mM dipeptide (#1), time 9.82): 2.67 10^6 cells/ml
- viable cell density (5.4 mM dipeptide (#1), time 10.99): 3.57 10^6 cells/ml
- viable cell density (5.4 mM dipeptide (#1), time 12.02): 4.91 10^6 cells/ml
- viable cell density (5.4 mM dipeptide (#1), time 12.75): 6.415 10^6 cells/ml
- viable cell density (5.4 mM dipeptide (#1), time 13.89): 8.285 10^6 cells/ml
- viable cell density (5.4 mM dipeptide (#1), time 14.74): 11.695 10^6 cells/ml
- viable cell density (5.4 mM dipeptide (#1), time 15.79): 10.075 10^6 cells/ml
- viable cell density (5.4 mM dipeptide (#1), time 16.89): 7.995 10^6 cells/ml
- viable cell density (5.4 mM dipeptide (#1), time 18.06): 6.6 10^6 cells/ml
- maximum viable cell density (third passage) (cultivation #1, all Asn provided in the form of the dipeptide (5.4 mM), compared among cultivations #1-6): greatest
